Where two headings read alike, the source gives them in different places. d = 2'-deoxy (DNA); r = 2'-OH (RNA)
How the values were obtained:
CHOP::GFP reporter = CHOP::GFP reporter expression by FACS in CHOP::GFP CHO cells; assay type: cell-based, Chinese Hamster
HT22 cells = experiment: HT22 cell survival (MTT) after toxic glutamate exposure; assay type: cell-based; conditions: HT22 cells preconditioned (70 μM 22P19 for 24 or 48 h, or siRNA transfection), then 5 mM or 10 mM glutamate for 18 hours
Protocol: FIG. 6: Inhibition of endogenous GADD34L protects cells against oxidative toxicity. The bar graphs show percent survival of HT22 cells following exposure to toxic amounts of glutamate. HT22 cells were treated with 70 μM 22P19 for 24 or 48 h (top panel), or left untransfected (NTx), mock transfected, transfected with GADD34L siRNA, or transfected with control or CD2 siRNA (bottom panel), and then exposed to the indicated concentrations of glutamate for 18 hours.
In order to determine whether this preconditioning is protective against subsequent cell stress, cell survival rates of HT22 cells following toxic glutamate exposure were measured, where those HT22 cells had been preconditioned by 22P19- or RNAi-mediated inhibition of GADD34L (see FIG. 6).
For this assay, HT22 cells were either treated with 70 μM 22P19 for 24 or 48 h, or transfected with GADD34L siRNA or control CD2 siRNA, and then exposed to 0 mM, 5 mM, or 10 mM glutamate for 18 hours.

[1] = test system: CHOP protein and phosphorylated eIF2α in CHO cells; assay type: cell-based, Chinese Hamster
[2] = parental CHO cells, 1.75 μg/mL tunicamycin or 50 μM arsenite

Substance: GADD34L siRNA: complementary double stranded RNA oligonucleotides (SEQ ID NO: 9 and 10) targeting GADD34L mRNA, purchased from Dharmacon (chain 1 GGGAUGGAUGCAGGUUCCATT; chain 2 UGGAACCUGCAUCCAUCCCTT; sugars from the 5' end r19 d2, backbone not given here)
- CHOP::GFP expression in cells not subject to stress (CHOP::GFP reporter; CHO CHOP::GFP cells harvested 16, 24 or 44 hours after transfection): activates CHOP::GFP expression
- cell survival following glutamate treatment (HT22 cells): substantially improved cell survival

Substance: arsenite
- CHOP::GFP reporter expression (CHOP::GFP reporter): substantially activated
- CHOP protein level [1]: strong induction of CHOP protein
- phosphorylated eIF2α level [1]: increase in phosphorylated eIF2α levels

Substance: tunicamycin
- CHOP::GFP reporter expression (CHOP::GFP reporter; parental CHO cells, 8 hours, 1.75 μg/mL tunicamycin or 50 μM arsenite): substantially activated
- CHOP protein level [1, 2]: strong induction of CHOP protein
- phosphorylated eIF2α level [1, 2]: increase in phosphorylated eIF2α levels

From patent US7097996B2, “Methods of screening test compounds using GADD34L, an eIF2α-specific phosphatase subunit” (New York University, priority 2002, dated 2006)
